Measurements published in patent US8697877B2, “Oxyindole derivatives with motilin receptor agonistic activity” (RaQualia Pharma Inc., priority 2009, dated 2014).

target: T1, human motilin receptor (GPR38) (Homo sapiens, UniProt O43193); assay: GPR38 (Motilin Receptor) Functional Assay, NFAT-beta-lactamase reporter in CHO-K1 cells; format: cell-based
T1 construct: expressed in transfected cells; host or cells: CHO-K1
Description: The potencies and efficacies of the compounds of this invention for GPR38 can be determined by reporter assay performed on the human cloned receptor as described herein.
GPR38 (Motilin Receptor) Functional Assay
A CHO-K1 cell line stably transfected NFAT-beta-lactamase reporter and human motilin receptor gene was used. The cells were cultured in culture medium (Dulbecco's modified eagle medium containing 10% fetal bovine serum, 1 mM sodium pyruvate, 0.1 mM MEM nonessential amino acids, 25 mM HEPES buffer, 50 units/mL penicillin, 50 microg/mL streptomycin, 100 microg/mL zeocin, and 500 microg/mL G418). The cells were harvested with 0.05% trypsin EDTA and centrifuged. The cell pellets were resuspended in the culture medium and plated into a black/clear bottom 384-well plate at a density of 8000 cells per well, then incubated at 37° C. with 5% CO2 for over night (about 20 hours). On the day of assay, the culture medium was aspirated and 20 microL of assay medium (Dulbecco's modified eagle medium containing 100 units/mL penicillin and 100 microg/mL streptomycin) was added to each well, then the cell plates were placed in incubator at 37° C. with 5% CO2 for 1.5 hours. Compounds were prepared in 100% DMSO and these were diluted to 5× of final concentration with assay buffer (Hanks balanced salt solution, 20 mM HEPES, and 0.1% BSA), then dispensed into 384-well plate (5 microL/well). After incubation at 37° C. with 5% CO2 for 4.5 hours, CCF4-AM loading solution (Invitrogen Corp.) was added to each well. After incubation for 2 hours at room temperature, fluorescence intensities were measured by using plate reader FDSS (Hamamatsu Photonics K. K.) with excitation 400 nm, emission 465 nm/540 nm. Agonistic activity (EC50) was calculated from the sigmoidal dose-response curve using GraphPad Prism software (GraphPad Software, Inc.).

T1 sequence (O43193 whole entry): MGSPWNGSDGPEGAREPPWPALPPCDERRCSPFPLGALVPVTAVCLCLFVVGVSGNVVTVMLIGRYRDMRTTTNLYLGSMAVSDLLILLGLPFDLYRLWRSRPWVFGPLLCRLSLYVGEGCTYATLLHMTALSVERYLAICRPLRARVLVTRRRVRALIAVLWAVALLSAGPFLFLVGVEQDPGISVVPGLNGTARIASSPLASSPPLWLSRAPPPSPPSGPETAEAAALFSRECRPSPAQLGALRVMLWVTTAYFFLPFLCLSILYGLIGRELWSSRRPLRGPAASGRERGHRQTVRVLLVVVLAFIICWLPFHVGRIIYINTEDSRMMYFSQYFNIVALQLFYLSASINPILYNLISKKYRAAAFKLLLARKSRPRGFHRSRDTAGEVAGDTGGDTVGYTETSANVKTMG

| Structure (SMILES) | EC50 [nM] |
| --- | --- |
| CN[C@@H]1CC[C@H](C(=O)N[C@@H](Cc2cccc(F)c2)C(=O)N2CCC(N3C(=O)C(C)(C)c4ccccc43)CC2)C1 [Example 28, (1S,3R)-N-((S)-1-(4-(3,3-dimethyl-2-oxoindolin-1-yl)piperidin-1-yl)-3-(3-fluorophenyl)-1-oxopropan-2-yl)-3-(methylamino)cyclopentane-carboxamide] | ≤ 10 |
| CN[C@@H]1CC[C@H](C(=O)N[C@@H](Cc2cccc(Cl)c2)C(=O)N2CCC(N3C(=O)C(C)(C)c4ccccc43)CC2)C1 [Example 29, (1S,3R)-N-((S)-3-(3-chlorophenyl)-1-(4-(3,3-dimethyl-2-oxoindolin-1-yl)piperidin-1-yl)-1-oxopropan-2-yl)-3-(methylamino)cyclopentane-carboxamide] | ≤ 10 |
| CN[C@@H]1CC[C@H](C(=O)N[C@@H](Cc2ccccc2)C(=O)N2CCC(N3C(=O)C(C)(C)c4ccccc43)CC2)C1 [Example 30, (1S,3R)-N-((S)-1-(4-(3,3-dimethyl-2-oxoindolin-1-yl)piperidin-1-yl)-1-oxo-3-phenylpropan-2-yl)-3-(methylamino) cyclopentanecarboxamide] | ≤ 10 |
| CN[C@@H]1CC[C@H](C(=O)N[C@@H](Cc2cccc(OC)c2)C(=O)N2CCC(N3C(=O)C(C)(C)c4ccccc43)CC2)C1 [Example 31, (1S,3R)-N-((S)-1-(4-(3,3-dimethyl-2-oxoindolin-1-yl)piperidin-1-yl)-3-(3-methoxyphenyl)-1-oxopropan-2-yl)-3-(methylamino)cyclopentane-carboxamide] | ≤ 10 |
| CN[C@@H]1CC[C@H](C(=O)N[C@@H](Cc2ccccc2F)C(=O)N2CCC(N3C(=O)C(C)(C)c4ccccc43)CC2)C1 [Example 32, (1S,3R)-N-((S)-1-(4-(3,3-dimethyl-2-oxoindolin-1-yl)piperidin-1-yl)-3-(2-fluorophenyl)-1-oxopropan-2-yl)-3-(methylamino)cyclopentane-carboxamide] | ≤ 10 |
| CN[C@@H]1CC[C@H](C(=O)N[C@@H](CC(C)C)C(=O)N2CCC(N3C(=O)C(C)(C)c4ccccc43)CC2)C1 [Example 33, (1S,3R)-N-((S)-1-(4-(3,3-dimethyl-2-oxoindolin-1-yl)piperidin-1-yl)-4-methyl-1-oxopentan-2-yl)-3-(methylamino) cyclopentanecarboxamide] | ≤ 10 |
| CN[C@@H]1CC[C@H](C(=O)N[C@@H](Cc2c[nH]c3ccccc23)C(=O)N2CCC(N3C(=O)C(C)(C)c4ccccc43)CC2)C1 [Example 34, (1S,3R)-N-((S)-1-(4-(3,3-dimethyl-2-oxoindolin-1-yl)piperidin-1-yl)-3-(1H-indol-3-yl)-1-oxopropan-2-yl)-3-(methylamino)cyclopentane-carboxamide] | ≤ 10 |
| CN[C@@H]1CC[C@H](C(=O)N[C@@H](Cc2cccc(C(F)(F)F)c2)C(=O)N2CCC(N3C(=O)C(C)(C)c4ccccc43)CC2)C1 [Example 35, (1S,3R)-N-((S)-1-(4-(3,3-dimethyl-2-oxoindolin-1-yl)piperidin-1-yl)-1-oxo-3-(3-(trifluoromethyl)phenyl)propan-2-yl)-3-(methylamino)cyclo-pentanecarboxamide] | ≤ 10 |
| CN[C@@H]1CC[C@H](C(=O)N[C@@H](Cc2ccc(C(F)(F)F)cc2)C(=O)N2CCC(N3C(=O)C(C)(C)c4ccccc43)CC2)C1 [Example 36, (1S,3R)-N-((S)-1-(4-(3,3-dimethyl-2-oxoindolin-1-yl)piperidin-1-yl)-1-oxo-3-(4-(trifluoromethyl)phenyl)propan-2-yl)-3-(methylamino)cyclo-pentanecarboxamide] | ≤ 10 |
| CN[C@@H]1CC[C@H](C(=O)N[C@@H](Cc2ccc(OC)cc2)C(=O)N2CCC(N3C(=O)C(C)(C)c4ccccc43)CC2)C1 [Example 37, (1S,3R)-N-((S)-1-(4-(3,3-dimethyl-2-oxoindolin-1-yl)piperidin-1-yl)-3-(4-methoxyphenyl)-1-oxopropan-2-yl)-3-(methylamino)cyclopentanecarboxamide] | ≤ 10 |
